Patent US10597433B2, “Peptides and combination of peptides for use in immunotherapy against small cell lung cancer and other cancers” (Immatics Biotechnologies GmbH, priority 2015, dated 2020)

Experiments:
[1] = target: HLA-A*02:01 (Homo sapiens, UniProt P04439, D140Y/D185E/D98H/E176V/E277Q/G131W/G231S/I119V/I121R/I166T/I218V/L300P/L318F/N151K/N90K/P208A/P217A/Q86G/Q94H/R138H/R169H/T345S); test: MHC binding assay: UV-ligand exchange with ELISA detection of β2m of stabilized MHC complexes; settings: binding to HLA-A*02:01
Description: Candidate peptides for T cell based therapies according to the present invention were further tested for their MHC binding capacity (affinity). The individual peptide-MHC complexes were produced by UV-ligand exchange, where a UV-sensitive peptide is cleaved upon UV-irradiation, and exchanged with the peptide of interest as analyzed. Only peptide candidates that can effectively bind and stabilize the peptide-receptive MHC molecules prevent dissociation of the MHC complexes. To determine the yield of the exchange reaction, an ELISA was performed based on the detection of the light chain (β2m) of stabilized MHC complexes. The assay was performed as generally described in Rodenko et al. (Rodenko et al., 2006).
96 well MAXISorp plates (NUNC) were coated over night with 2 μg/ml streptavidin in PBS at room temperature, washed 4× and blocked for 1 h at 37° C. in 2% BSA containing blocking buffer. Refolded HLA-A*02:01/MLA-001 monomers served as standards, covering the range of 15-500 ng/ml. Peptide-MHC monomers of the UV-exchange reaction were diluted 100 fold in blocking buffer. Samples were incubated for 1 h at 37° C., washed four times, incubated with 2 μg/ml HRP conjugated anti-β2m for 1 h at 37° C., washed again and detected with TMB solution that is stopped with […]. Absorption was measured at 450 nm. Candidate peptides that show a high exchange yield (preferably higher than 50%, most preferred higher than 75%) are generally preferred for a generation and production of antibodies or fragments thereof, and/or T cell receptors or fragments thereof, as they show sufficient avidity to the MHC molecules and prevent dissociation of the MHC complexes.

[2] = system: CD8+ T cells; test: In vitro T-cell priming assay with aAPCs loaded with peptide/MHC complexes and anti-CD28 antibody, pMHC multimer readout; type: cell-based, human; settings: for Wells positive [%]: HLA-A*02 restricted peptides, CD8+ T cells of healthy donors, Table 10B; for wells (in vitro immunogenicity, positive wells): CD8+ T cells of healthy HLA-A*02 donors, Table 10A
Description: In order to obtain information regarding the immunogenicity of the TUMAPs of the present invention, the inventors performed investigations using an in vitro T-cell priming assay based on repeated stimulations of CD8+ T cells with artificial antigen presenting cells (aAPCs) loaded with peptide/MHC complexes and anti-CD28 antibody.
In order to perform in vitro stimulations by artificial antigen presenting cells loaded with peptide-MHC complex (pMHC) and anti-CD28 antibody, the inventors first isolated CD8+ T cells from fresh HLA-A*02 leukapheresis products via positive selection using CD8 microbeads (Miltenyi Biotec, Bergisch-Gladbach, Germany) of healthy donors obtained from the University clinics Mannheim, Germany, after informed consent.
PBMCs and isolated CD8+ lymphocytes were incubated in T-cell medium (TCM) until use consisting of RPMI-Glutamax (Invitrogen, Karlsruhe, Germany) supplemented with 10% heat inactivated human AB serum (PAN-Biotech, Aidenbach, Germany), 100 U/ml Penicillin/100 μg/ml Streptomycin (Cambrex, Cologne, Germany), 1 mM sodium pyruvate (CC Pro, Oberdorla, Germany), 20 μg/ml Gentamycin (Cambrex). 2.5 ng/ml IL-7 (PromoCell, Heidelberg, Germany) and 10 U/ml IL-2 (Novartis Pharma, Nürnberg, Germany) were also added to the TCM at this step.
Generation of pMHC/anti-CD28 coated beads, T-cell stimulations and readout was performed in a highly defined in vitro system using four different pMHC molecules per stimulation condition and 8 different pMHC molecules per readout condition.
The purified co-stimulatory mouse IgG2a anti human CD28 Ab9.3 (Jung et al., 1987) was chemically biotinylated using Sulfo-N-hydroxysuccinimidobiotin as recommended by the manufacturer (Perbio, Bonn, Germany). Beads used were 5.6 μm diameter streptavidin coated polystyrene particles (Bangs Laboratories, Ill., USA).
800.000 beads/200 μl were coated in 96-well plates in the presence of 4×12.5 ng different biotin-pMHC, washed and 600 ng biotin anti-CD28 were added subsequently in a volume of 200 μl. Stimulations were initiated in 96-well plates by co-incubating […] CD8+ T cells with 2×10^5 washed coated beads in 200 μl TCM supplemented with 5 ng/ml IL-12 (PromoCell) for 3 days at 37° C. Half of the medium was then exchanged by fresh TCM supplemented with 80 Uml IL-2 and incubating was continued for 4 days at 37° C. This stimulation cycle was performed for a total of three times. For the pMHC multimer readout using 8 different pMHC molecules per condition, a two-dimensional combinatorial coding approach was used as previously described (Andersen et al., 2012) with minor modifications encompassing coupling to 5 different fluorochromes. Finally, multimeric analyses were performed by staining the cells with Live/dead near IR dye (Invitrogen, Karlsruhe, Germany), CD8-FITC antibody clone SK1 (BD, Heidelberg, Germany) and fluorescent pMHC multimers. For analysis, a BD LSRII SORP cytometer equipped with appropriate lasers and filters was used. Peptide specific cells were calculated as percentage of total CD8+ cells. Evaluation of multimeric analysis was done using the FlowJo software (Tree Star, Oreg., USA). In vitro priming of specific multimer+ CD8+ lymphocytes was detected by comparing to negative control stimulations.

Substance | Peptide exchange (MHC class I binding score, peptide exchange yield) [1] | Wells positive [%] [2] | wells (in vitro immunogenicity, positive wells) [2]
4 (GLLDPGMLVNI; listed as Homo sapiens) [compound 4] | +++ (≥50 = +++) | ++ (20%-49% = ++) | –
128 (SLAPAGVIRV; listed as Homo sapiens) [compound 128] | – | – | + (<20% = +)
2 (VMFNFPDQATV; listed as Homo sapiens) [compound 2] | +++ (≥50 = +++) | + (<20% = +) | –
6 (SIMDYVVFV; listed as Homo sapiens) [compound 6] | ++++ (≥75% = ++++) | + (<20% = +) | –
129 (RVADYIVKV; listed as Homo sapiens) [compound 129] | – | – | + (<20% = +)
132 (NLLAEIHGV; listed as Homo sapiens) [compound 132] | – | – | + (<20% = +)
130 (SLYDNQITTV; listed as Homo sapiens) [compound 130] | – | – | ++ (20%-49% = ++)

Second part, led by results:

Peptide exchange (MHC class I binding score, peptide exchange yield) [1] | Substance | Wells positive [%] [2] | wells (in vitro immunogenicity, positive wells) [2]
+++ (≥50 = +++) | 80 (ILMDPSPEYA; listed as Homo sapiens) [compound 80] | +++ (50%-69% = +++) | –
+++ (≥50 = +++) | 110 (GLTETGLYRI; listed as Homo sapiens) [compound 110] | +++ (50%-69% = +++) | –
+++ (≥50 = +++) | 82 (ALSSVIKEL; listed as Homo sapiens) [compound 82] | + (<20% = +) | –
+++ (≥50 = +++) | 39 (GLDPTQFRV; listed as Homo sapiens) [compound 39] | ++++ (≥70 = ++++) | –
+++ (≥50 = +++) | 11 (KLFAIPILL; listed as Homo sapiens) [compound 11] | ++++ (≥70 = ++++) | –
